Among the data in ChEMBL document CHEMBL4417631, “Oral peptide inhibitors of interleukin-23 receptor and their use to treat inflammatory bowel diseases” (2017) are IC50 values, retold here.

Where a SMILES comes first, the peptide text is derived from it.

For the experiment, the target named is T1, Interleukin-23 receptor (Homo sapiens, UniProt Q5VWK5).
T1 sequence (Q5VWK5 whole entry): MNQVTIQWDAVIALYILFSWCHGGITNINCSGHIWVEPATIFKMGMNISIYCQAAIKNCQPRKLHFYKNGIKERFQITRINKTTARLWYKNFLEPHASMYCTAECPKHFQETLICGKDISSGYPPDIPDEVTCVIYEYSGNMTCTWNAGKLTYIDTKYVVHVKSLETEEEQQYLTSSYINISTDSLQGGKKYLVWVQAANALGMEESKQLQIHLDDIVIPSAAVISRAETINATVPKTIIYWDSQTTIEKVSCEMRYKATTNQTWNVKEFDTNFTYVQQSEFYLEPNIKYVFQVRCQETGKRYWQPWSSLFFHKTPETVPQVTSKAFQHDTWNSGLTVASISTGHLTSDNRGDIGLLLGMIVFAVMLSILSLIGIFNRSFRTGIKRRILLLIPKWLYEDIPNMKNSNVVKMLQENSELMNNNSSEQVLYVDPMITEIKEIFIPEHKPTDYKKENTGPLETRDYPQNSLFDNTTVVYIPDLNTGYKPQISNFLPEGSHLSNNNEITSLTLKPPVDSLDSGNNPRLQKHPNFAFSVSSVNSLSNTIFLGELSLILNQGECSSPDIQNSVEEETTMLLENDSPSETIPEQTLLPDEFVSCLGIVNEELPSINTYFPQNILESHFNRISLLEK
Nature of the experiment: Inhibition of interleukin-23 binding to human interleukin-23 receptor incubated for 2 hrs by competitive binding ELISA.
Usually IC50 stands for the concentration needed to halve the response being measured. Consider `CC(=O)N[C@@H](CS)C(=O)N[C@H](C(=O)N[C@H](C(=O)N[C@@H](Cc1c[nH]c2ccccc12)C(=O)N[C@H](C(=O)N[C@@H](CS)C(=O)N[C@@H](Cc1ccc(O)cc1)C(=O)N[C@@H](Cc1c[nH]c2ccccc12)C(=O)N[C@@H](Cc1cnc[nH]1)C(=O)N[C@@H](CCC(N)=O)C(=O)N[C@@H](Cc1ccc(O)cc1)C(=O)NCC(N)=O)[C@@H](C)O)[C@@H](C)O)[C@@H](C)O` (Ac-CTTWTCYWHQYG-NH2), for which the IC50 was under 0.5 µM.

In turn, `COc1ccc([C@@H]2NC(=O)[C@H]([C@@H](C)O)NC(=O)[C@H](CCC(N)=O)NC(=O)[C@@H](NC(C)=O)CCSC[C@@H](C(=O)N[C@@H](Cc3ccc(OCCN)cc3)C(=O)N[C@@H](Cc3ccc4ccccc4c3)C(=O)N[C@@](C)(CCCCN)C(=O)N[C@@H](CCC(=O)O)C(=O)N[C@@H](CC(N)=O)C(=O)NCC(N)=O)NC(=O)[C@H](CCC(N)=O)NC2=O)cc1` showed an IC50 of over 3 µM.

`CC(C)[C@H](NC(=O)[C@H](Cc1c[nH]c2ccccc12)NC(=O)[C@H](CC(=O)O)NC(=O)[C@H](C)NC(=O)[C@@H](N)CS)C(=O)N[C@@H](CS)C(=O)N[C@@H](Cc1ccc(O)cc1)C(=O)N[C@@H](Cc1cccc2ccccc12)C(=O)N[C@@H](Cc1cnc[nH]1)C(=O)N[C@H](C(=O)N[C@H](Cc1ccccc1)C(=O)O)[C@@H](C)O` displayed an IC50 of over 1 µM.

`CC(=O)N[C@@H](CS)C(=O)N[C@@H](CCCNC(=N)N)C(=O)N[C@@H](CC(=O)O)C(=O)N[C@@H](Cc1c[nH]c2ccccc12)C(=O)N[C@@H](CCC(N)=O)C(=O)N[C@@H](CS)C(=O)N[C@@H](Cc1ccc(O)cc1)C(=O)N[C@@H](Cc1c[nH]c2ccccc12)C(=O)N(C)[C@@H](CCCNC(=N)N)C(=O)N[C@@H](CCCCN)C(=O)N[C@@H](Cc1ccccc1)C(=O)NCC(=O)NCCOCCC(=O)N[C@H](CCCCN)C(N)=O` showed an IC50 of over 1 µM.

The molecule `CC(=O)N[C@@H](CS)C(=O)N[C@@H](C)C(=O)N[C@@H](CC(=O)O)C(=O)N[C@@H](Cc1c[nH]c2ccccc12)C(=O)N[C@H](C(=O)N[C@@H](CS)C(=O)N[C@@H](Cc1ccc(O)cc1)C(=O)N[C@@H](Cc1cc(F)cc(F)c1)C(=O)N[C@@H](CCCN)C(=O)N[C@@H](CN)C(=O)N[C@@H](Cc1ccccc1)C(=O)NCC(=O)NCCOCC(=O)N[C@H](CCCCN)C(N)=O)C(C)C` came in with an IC50 of 6 µM.

In turn, `CC(=O)N[C@@H](CS)C(=O)N[C@@H](CCC(N)=O)C(=O)N[C@H](C(=O)N[C@@H](Cc1c[nH]c2ccccc12)C(=O)N[C@@H](CCC(N)=O)C(=O)N[C@@H](CS)C(=O)N[C@@H](Cc1ccc(O)cc1)C(=O)N[C@@H](CCc1ccccc1)CC(=O)N[C@@H](CCCNC(=N)N)C(=O)N[C@H](C(=O)N[C@@H](CC(N)=O)C(=O)NCC(=O)NCCOCC(=O)N[C@H](CCCCN)C(N)=O)C(C)C)[C@@H](C)O` showed an IC50 of over 30 µM.

Molecule `CC(C)[C@H](NC(=O)[C@H](Cc1c[nH]c2ccccc12)NC(=O)[C@H](CC(=O)O)NC(=O)[C@H](C)NC(=O)[C@@H](N)CS)C(=O)N[C@@H](CS)C(=O)N[C@@H](Cc1ccc(O)cc1)C(=O)N[C@@H](Cc1c[nH]c2ccccc12)C(=O)N[C@@H](Cc1cnc[nH]1)C(=O)N[C@H](C(N)=O)[C@@H](C)O` displayed an IC50 of over 1 µM.

Molecule `CC(=O)N[C@@H](CS)C(=O)N[C@@H](C)C(=O)N[C@@H](CC(=O)O)C(=O)N[C@@H](Cc1c[nH]c2ccccc12)C(=O)N[C@H](C(=O)N[C@@H](CS)C(=O)N[C@@H](Cc1ccc(O)cc1)C(=O)N[C@H](CC(=O)N[C@@H](CCCN)C(=O)N[C@@H](CN)C(=O)N[C@@H](Cc1ccccc1)C(=O)NCC(=O)NCCOCC(=O)N[C@H](CCCCN)C(N)=O)Cc1c[nH]c2ccccc12)C(C)C` came in with an IC50 of 6 µM.

In turn, `CC(=O)NC1C/C=C\CCCC(C(=O)N[C@@H](Cc2ccc(O)cc2)C(=O)N[C@@H](Cc2c[nH]c3ccccc23)C(=O)N[C@@H](CCCNC(=N)N)C(=O)N[C@@H](CCCCN)C(=O)N[C@@H](Cc2ccccc2)C(=O)NCC(=O)NCCOCC(=O)N[C@H](CCCCN)C(N)=O)NC(=O)[C@H](CCC(N)=O)NC(=O)[C@H](Cc2c[nH]c3ccccc23)NC(=O)[C@H]([C@@H](C)O)NC(=O)[C@H](CCCNC(=N)N)NC1=O` (stereo not given in full) came in with an IC50 of 1 to 10 µM.

The molecule `CC(=O)N[C@@H](CS)C(=O)N[C@@H](CCC(N)=O)C(=O)N[C@H](C(=O)N[C@@H](Cc1c[nH]c2ccccc12)C(=O)N[C@@H](CCC(N)=O)C(=O)N[C@@H](CS)C(=O)N[C@@H](CC1CCCCC1)C(=O)N[C@@H](Cc1c[nH]c2ccccc12)C(=O)N[C@@H](CCC(C)C)C(=O)N[C@@H](CCC(=O)O)C(=O)N[C@@H](CC(N)=O)C(=O)NCC(N)=O)[C@@H](C)O` yielded an IC50 of 6 µM.

`C[C@H](N)C(=O)N[C@@H](C)C(=O)N[C@@H](CC(=O)O)C(=O)N[C@@H](Cc1c[nH]c2ccccc12)C(=O)N[C@@H](CS)C(=O)N[C@@H](C)C(=O)N[C@@H](Cc1ccc(O)cc1)C(=O)N[C@@H](Cc1c[nH]c2ccccc12)C(=O)N[C@@H](CS)C(=O)N[C@H](C(=O)N[C@@H](Cc1ccccc1)C(=O)NCC(N)=O)[C@@H](C)O` (H-AADWCAYWCTFG-NH2) had an IC50 of over 1 µM.

Regarding `CC(=O)N[C@@H](CS)C(=O)N[C@@H](CCC(N)=O)C(=O)N[C@H](C(=O)N[C@@H](Cc1c[nH]c2ccccc12)C(=O)N[C@@H](CCC(N)=O)C(=O)N[C@@H](CS)C(=O)N[C@@H](Cc1ccc(O)cc1)C(=O)N[C@@H](Cc1c[nH]c2ccccc12)C(=O)N[C@@H](CCCNC(=N)N)C(=O)N[C@H](CCC(=O)O)C(=O)N[C@@H](CC(N)=O)C(=O)NCC(=O)NCCOCC(=O)N[C@H](CCCCN)C(N)=O)[C@@H](C)O`, the IC50 is over 1 µM.

For the molecule `CC(=O)N[C@@H](CS)C(=O)N[C@H](C(=O)N[C@@H](CC(=O)O)C(=O)N[C@@H](Cc1c[nH]c2ccccc12)C(=O)N[C@H](C(=O)N[C@@H](CS)C(=O)N[C@@H](Cc1ccc(O)cc1)C(=O)N[C@@H](Cc1c[nH]c2ccccc12)C(=O)N[C@@H](Cc1cnc[nH]1)C(=O)N[C@H](C(=O)N[C@@H](Cc1ccccc1)C(=O)NCC(N)=O)[C@@H](C)O)C(C)C)[C@@H](C)O`, the IC50 was under 0.5 µM.

`CC(=O)N[C@@H](CS)C(=O)N[C@@H](CCC(N)=O)C(=O)N[C@H](C(=O)N[C@@H](Cc1c[nH]c2ccccc12)C(=O)N[C@@H](CCC(N)=O)C(=O)N[C@@H](CS)C(=O)N[C@@H](CCC(=O)O)C(=O)N[C@@H](Cc1c[nH]c2ccccc12)C(=O)N[C@@H](CCC(C)C)C(=O)N[C@@H](CCC(=O)O)C(=O)N[C@@H](CC(N)=O)C(=O)NCC(N)=O)[C@@H](C)O` showed an IC50 of over 30 µM.

The molecule `CC(=O)N[C@@H](CS)C(=O)N[C@@H](C)C(=O)N[C@@H](CC(=O)O)C(=O)N[C@@H](Cc1c[nH]c2ccccc12)C(=O)N[C@H](C(=O)N[C@@H](CS)C(=O)N[C@@H](Cc1ccc(O)cc1)C(=O)N[C@@H](Cc1c[nH]c2ccccc12)C(=O)N[C@@H](Cc1cnc[nH]1)C(=O)N[C@H](C(=O)N[C@@H](Cc1ccccc1)C(=O)NCC(=O)N[C@@H](CC(=O)O)C(=O)N[C@@H](CCCCNC(=O)COCC(=O)NCCCC[C@H](NC(=O)[C@H](CC(=O)O)NC(=O)CNC(=O)[C@H](Cc1ccccc1)NC(=O)[C@@H](NC(=O)[C@H](Cc1cnc[nH]1)NC(=O)[C@H](Cc1c[nH]c2ccccc12)NC(=O)[C@H](Cc1ccc(O)cc1)NC(=O)[C@H](CS)NC(=O)[C@@H](NC(=O)[C@H](Cc1c[nH]c2ccccc12)NC(=O)[C@H](CC(=O)O)NC(=O)[C@H](C)NC(=O)[C@H](CS)NC(C)=O)C(C)C)[C@@H](C)O)C(=O)O)C(=O)O)[C@@H](C)O)C(C)C` came in with an IC50 of 1 to 10 µM.

Consider `CC(=O)N[C@@H](CS)C(=O)N[C@@H](C)C(=O)N[C@@H](CC(=O)O)C(=O)N[C@@H](Cc1c[nH]c2ccccc12)C(=O)N[C@H](C(=O)N[C@@H](CS)C(=O)N[C@@H](Cc1ccc(O)cc1)C(=O)N[C@@H](Cc1c[nH]c2ccccc12)C(N)=O)C(C)C`, for which the IC50 is over 30 µM.

`CC(=O)N[C@H]1CCSC[C@@H](C(=O)N[C@@H](Cc2ccc(OCCN)cc2)C(=O)N[C@@H](Cc2ccc3ccccc3c2)C(=O)N[C@@](C)(CCCCN)C(=O)N[C@@H](CCC(=O)O)C(=O)N[C@@H](CC(N)=O)C(=O)NCC(N)=O)NC(=O)[C@H](CCC(N)=O)NC(=O)[C@H](CCCNCc2ccccc2)NC(=O)[C@H]([C@@H](C)O)NC(=O)[C@H](CCC(N)=O)NC1=O` yielded an IC50 of over 3 µM.

In the case of `CC(=O)N[C@@H](CS)C(=O)N[C@@H](C)C(=O)N[C@@H](CC(=O)O)C(=O)N[C@@H](Cc1c[nH]c2ccccc12)C(=O)N[C@H](C(=O)N[C@@H](CS)C(=O)N[C@@H](Cc1ccc(O)cc1)C(=O)N[C@@H](Cc1cccc2ccccc12)C(=O)N[C@H](C(=O)N[C@H](C(=O)N[C@@H](Cc1ccccc1)C(=O)NCC(N)=O)[C@@H](C)O)C(C)C)C(C)C`, the IC50 lay in the range of 0.5 to 1 µM.

Regarding `CC(=O)N[C@@H](CS)C(=O)N[C@@H](CCC(N)=O)C(=O)N[C@H](C(=O)N[C@@H](Cc1c[nH]c2ccccc12)C(=O)N[C@@H](CCC(N)=O)C(=O)N[C@@H](CS)C(=O)N[C@@H](Cc1ccc(O)cc1)C(=O)N[C@@H](Cc1ccc(Cl)c(Cl)c1)C(=O)N[C@@H](CCCNC(=N)N)C(=O)N[C@H](C(=O)N[C@@H](CC(N)=O)C(=O)NCC(=O)NCCOCC(=O)N[C@H](CCCCN)C(N)=O)C(C)C)[C@@H](C)O`, the IC50 is over 30 µM.

On to `CC(=O)N[C@@H](CS)C(=O)N[C@@H](CCC(N)=O)C(=O)N[C@H](C(=O)N[C@@H](Cc1c[nH]c2ccccc12)C(=O)N[C@@H](CCC(N)=O)C(=O)N[C@@H](CS)C(=O)N[C@@H](Cc1ccc(O)cc1)C(=O)N[C@H](CC(=O)N[C@@H](CCCNC(=N)N)C(=O)N[C@H](C(=O)N[C@@H](CC(N)=O)C(=O)NCC(=O)NCCOCC(=O)N[C@H](CCCCN)C(N)=O)C(C)C)Cc1ccc(O)cc1)[C@@H](C)O`, for which the IC50 is over 30 µM.
